Test results from US8304452B2, “Radical scavenger and active oxygen eliminating agent” (InBiotex Inc., priority 2005, dated 2012).

Legend:
human LDL = experiment: Effect on the oxidation of LDL in human blood, TBARS (Example 11); type: biochemical; details: LDL + 5 μM CuSO4, TBARS; FIG. 11
Protocol: LDL was prepared by a fractionation and centrifugation method. A fraction at a specific gravity of 1.019 to 1.063 g/mL in serum was defined as human LDL. 5 μM CuSO4, 5-S-GAD (3 to 100 μM) and N-acetyl-carnosine (100 μM to 10 mM) or L-carnosine (10 μM to 10 mM) were added to 0.2 mg/mL LDL, for incubation at 37° C. for 3 hours. After termination of the incubation, TEARS (a substance reactive with thiobarbituric acid) was assayed. Although the TBA reaction is a non-specific reaction, the reaction is used for a method of assaying various lipid peroxide products including malone dialdehyde. An experiment of peroxidation with copper sulfate was done twice (N=2).
An aqueous solution containing 3.75 mg/mL thiobarbituric acid (TBA), 150 mg/mL trichloroacetic acid (TCA) and 0.25 N hydrochloric acid (HCl) was prepared as the TBA reagent, while standard solutions (2, 5, 10, 20, 40 μM) of tetramethoxypropane were prepared. 100 μL each of an LDL sample or a standard solution was added together with 200 μL of the TBA reagent into an Eppendorf tube (1.5 mL), which was then sealed with a cap for thorough mixing. […] The supernatant was assayed of the absorbance (535 nm). Based on the absorbance of the standard solution, a standard curve was prepared. Based on the standard curve, the amount of TBARS in the LDL sample was calculated (in nmol/mg LDL protein) (see FIG. 11).

[1] = DPPH-scavenging activity versus N-acetyl-L-carnosine (Example 6); type: biochemical; details: 60 μM DPPH, 5 minutes; FIG. 6
Protocol: 5-S-GAD or N-acetyl-L-carnosine was added to an ethanol solution of 60 μM DPPH for reaction at ambient temperature for 5 minutes. Subsequently, the concentration of the DPPH radical was measured via the absorbance at 517 nm. The DPPH radical concentration in a reaction solution to which distilled water instead of the test substance solution was added, was used as a control. In the same manner as in Example 2, the scavenging ratio (%) of the DPPH radical was calculated and defined as the radical-scavenging activity (see FIG. 6).

NCCC(=O)N[C@@H](Cc1cc(O)c(O)c(SC[C@H](NC(=O)CC[C@H](N)C(=O)O)C(=O)NCC(=O)O)c1)C(=O)O [5-S-GAD, N-β-alanyl-5-S-glutathionyl-3,4-dihydroxyphenylalanine]
anti-oxidation action compared with N-acetyl-carnosine and L-carnosine (in words) (human LDL): excellent anti-oxidation action compared with N-acetyl-carnosine and L-carnosine | DPPH radical-scavenging action compared with N-acetyl-L-carnosine (in words) [1]: excellent DPPH radical-scavenging action compared with N-acetyl-L-carnosine
